Here are results for 23 compounds from PubChem BioAssay AID248 (DTP/NCI, 2004).

Toxic doses and inconclusive results are not listed.

This test concerns L1210 leukemia ip in BDF1 mice, survival T/C. Nature of the test: NCI In Vivo Anticancer Drug Screen. Data for tumor model L1210 Leukemia (intraperitoneal) in B6D2F1 (BDF1) mice. Conditions: endpoint: mean survival time, higher = longer survival. In short, it runs like this: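 Survival endpoint. Drug-treated group vs vehicle group, expressed as T divided by C. Tumor passaged by transplantation.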

[1] abbreviates: dose: 25.0 mg/kg/injection, schedule: Q01DX009 (ip), vehicle: Klucel (hydroxypropylcellulose) (HPC).
The mark [2] stands for this setting: dose: 100.0 mg/kg/injection, schedule: Q04DX003 (ip), vehicle: Klucel (hydroxypropylcellulose) (HPC).
[3] abbreviates: dose: 50.0 mg/kg/injection, schedule: Q01DX009 (ip), vehicle: saline with Tween-80.
The mark [4] stands for this setting: dose: 100.0 mg/kg/injection, schedule: Q01DX009 (ip), vehicle: saline with Tween-80.
The mark [5] stands for this setting: dose: 100.0 mg/kg/injection, schedule: Q04DX003 (ip), vehicle: saline with Tween-80.
[6] abbreviates: dose: 100.0 mg/kg/injection, schedule: Q01DX001 (ip), vehicle: carboxymethylcellulose (CMC).
The mark [7] stands for this setting: dose: 200.0 mg/kg/injection, schedule: Q01DX001 (ip), vehicle: carboxymethylcellulose (CMC).
[8] abbreviates: dose: 400.0 mg/kg/injection, schedule: Q01DX001 (ip), vehicle: carboxymethylcellulose (CMC).
Where [9] appears, read: dose: 50.0 mg/kg/injection, schedule: Q01DX001 (ip), vehicle: saline.
[10] abbreviates: dose: 100.0 mg/kg/injection, schedule: Q01DX001 (ip), vehicle: saline.
[11] abbreviates: dose: 200.0 mg/kg/injection, schedule: Q04DX003 (ip), vehicle: saline with Tween-80.
Where [12] appears, read: dose: 400.0 mg/kg/injection, schedule: Q04DX003 (ip), vehicle: saline with Tween-80.
Setting [13] is: dose: 100.0 mg/kg/injection, schedule: Q01DX009 (ip), vehicle: Klucel (hydroxypropylcellulose) (HPC).
Where [14] appears, read: dose: 200.0 mg/kg/injection, schedule: Q01DX009 (ip), vehicle: Klucel (hydroxypropylcellulose) (HPC).
[15] abbreviates: dose: 200.0 mg/kg/injection, schedule: Q04DX003 (ip), vehicle: Klucel (hydroxypropylcellulose) (HPC).
Setting [16] is: dose: 400.0 mg/kg/injection, schedule: Q01DX009 (ip), vehicle: Klucel (hydroxypropylcellulose) (HPC).
Setting [17] is: dose: 400.0 mg/kg/injection, schedule: Q04DX003 (ip), vehicle: Klucel (hydroxypropylcellulose) (HPC).
The mark [18] stands for this setting: dose: 100.0 mg/kg/injection, schedule: Q04DX002 (ip), vehicle: Klucel (hydroxypropylcellulose) (HPC).
[19] abbreviates: dose: 200.0 mg/kg/injection, schedule: Q04DX002 (ip), vehicle: Klucel (hydroxypropylcellulose) (HPC).

For the compound `CSc1nc(N)nc2nc(C)cc(C)c12`, the T/C (dose: 100.0 mg/kg/injection, schedule: Q01DX Z (ip), vehicle: methylcellulose (MC)) was 110 % of control.
For the compound `CN(Cc1cnc2nc(N)nc(N)c2n1)c1ccc(C(=O)NC(CCC(=O)OC(C)(C)C)C(=O)OC(C)(C)C)cc1` (configuration not stated), the T/C was 124 % of control under setting [1]; 88 % of control (dose: 50.0 mg/kg/injection, schedule: Q01DX009 (ip), vehicle: Klucel (hydroxypropylcellulose) (HPC)); 159 % of control under setting [2].
As for `C=C(Br)CNC(=O)NCC`, the T/C was 94 % of control (dose: 25.0 mg/kg/injection, schedule: Q01DX009 (ip), vehicle: saline with Tween-80); 91 % of control under setting [3]; 105 % of control under setting [4]; 97 % of control under setting [5].
In the case of `CC1(C)N=C(N)N=C(N)N1c1ccc(OCCNC(=O)c2ccc(S(=O)(=O)F)cc2)c(Cl)c1`, the T/C (dose: 18.75 mg/kg/injection, schedule: Q04DX003 (ip), vehicle: saline with Tween-80) is 103 % of control; the T/C (dose: 37.5 mg/kg/injection, schedule: Q04DX003 (ip), vehicle: saline with Tween-80) was 108 % of control; the T/C (dose: 75.0 mg/kg/injection, schedule: Q04DX003 (ip), vehicle: saline with Tween-80) was 104 % of control.
On to `Cc1nc(N)c2c(n1)C(Cc1ccccc1)N(C(=O)c1ccccc1)C2` (configuration not stated), for which the T/C reads like this: under setting [6], 97 % of control; under setting [7], 97 % of control; under setting [8], 103 % of control.
As for `COC1(OC)C2(Cl)C(Cl)=C(Cl)C1(Cl)C1C2CS1(=O)=O` (configuration not stated), the T/C is 100 % of control (dose: 50.0 mg/kg/injection, schedule: Q01DX001 (ip), vehicle: carboxymethylcellulose (CMC)); 92 % of control under setting [6]; 100 % of control under setting [7]; 89 % of control under setting [8].
For the compound `N#CC1C=CCC1` (configuration not stated), the T/C runs as follows: under setting [3], 100 % of control; under setting [4], 100 % of control.
For `COc1ccc(-c2ccc(OC)cc2[N+](=O)[O-])c([N+](=O)[O-])c1`, the T/C is, setting by setting: under setting [6], 100 % of control; under setting [7], 100 % of control; under setting [8], 102 % of control.
`NC1=NC=NC(c2ccccc2)N1c1ccccc1F` (configuration not stated): the T/C by setting is: (dose: 25.0 mg/kg/injection, schedule: Q01DX001 (ip), vehicle: saline) 101 % of control; under setting [9], 96 % of control; under setting [10], 104 % of control.
With `CCCCNC(=O)/C=C/C(=O)NCCCC`, the T/C is 100 % of control under setting [5], 100 % of control under setting [11] and 100 % of control under setting [12].
On to `CC(C)=CCN(CC=C(C)C)CCC(CC=C(C)C)(C(N)=O)c1cccc2ccccc12` (configuration not stated), for which the T/C was 89 % of control (dose: 6.25 mg/kg/injection, schedule: Q01DX009 (ip), vehicle: Klucel (hydroxypropylcellulose) (HPC)); 101 % of control (dose: 12.5 mg/kg/injection, schedule: Q01DX009 (ip), vehicle: Klucel (hydroxypropylcellulose) (HPC)); 89 % of control under setting [1].
Turning to `COc1ccc(-c2nc(N)ncc2CSC)cc1`, the T/C runs as follows: under setting [5], 101 % of control; under setting [11], 86 % of control.
With `CCC1COC(Nc2cccc3c2CCCC3)=N1` (configuration not stated), the T/C runs as follows: (dose: 50.0 mg/kg/injection, schedule: Q04DX003 (ip), vehicle: saline with Tween-80) 92 % of control; under setting [5], 92 % of control; under setting [11], 92 % of control.
Regarding `O=C(O)CCc1cnc2ccccc2n1`, the T/C runs as follows: under setting [13], 97 % of control; under setting [2], 106 % of control; under setting [14], 95 % of control; under setting [15], 95 % of control; under setting [16], 96 % of control; under setting [17], 92 % of control.
For `O=C(C[n+]1ccc2ccccc2c1)c1ccccc1`, the T/C reads like this: (dose: 12.5 mg/kg/injection, schedule: Q01DX009 (ip), vehicle: saline) 98 % of control; (dose: 25.0 mg/kg/injection, schedule: Q01DX009 (ip), vehicle: saline) 104 % of control; (dose: 50.0 mg/kg/injection, schedule: Q01DX009 (ip), vehicle: saline) 101 % of control; (dose: 50.0 mg/kg/injection, schedule: Q04DX003 (ip), vehicle: saline) 97 % of control.
Take `O=C1c2cc(Br)ccc2NC1(c1c[nH]c2ccccc12)c1c[nH]c2ccccc12`: the T/C is, setting by setting: under setting [9], 102 % of control; under setting [10], 100 % of control; (dose: 200.0 mg/kg/injection, schedule: Q01DX001 (ip), vehicle: saline) 96 % of control; (dose: 400.0 mg/kg/injection, schedule: Q01DX001 (ip), vehicle: saline) 93 % of control.
With `COc1ccc(C(O)C(C)N)cc1` (configuration not stated), the T/C is, setting by setting: (dose: 75.0 mg/kg/injection, schedule: Q01DX001 (ip), vehicle: saline) 96 % of control; (dose: 150.0 mg/kg/injection, schedule: Q01DX001 (ip), vehicle: saline) 96 % of control.
For the compound `CC(=O)NC1Cc2cc(C)cc(C)c21` (configuration not stated), the T/C was 105 % of control (dose: 50.0 mg/kg/injection, schedule: Q04DX002 (ip), vehicle: Klucel (hydroxypropylcellulose) (HPC)); 102 % of control under setting [18]; 98 % of control under setting [19].
As for `COc1cc2c(cc1O)C(=O)CCCC2`, the T/C is 94 % of control (dose: 100.0 mg/kg/injection, schedule: Q01DX009 (ip), vehicle: saline sonified); 94 % of control under setting [2]; 103 % of control (dose: 200.0 mg/kg/injection, schedule: Q01DX009 (ip), vehicle: saline sonified); 92 % of control under setting [15]; 90 % of control (dose: 400.0 mg/kg/injection, schedule: Q01DX009 (ip), vehicle: saline sonified); 100 % of control under setting [17].
Turning to `O/N=C(/CN1CCCCC1)c1ccccc1`, the T/C runs as follows: under setting [5], 95 % of control; under setting [11], 98 % of control; under setting [12], 104 % of control.
Regarding `O=C(Nc1ccc(F)cc1)Nc1cccc(C(=O)O)c1`, the T/C is, setting by setting: under setting [13], 96 % of control; under setting [2], 96 % of control; under setting [14], 107 % of control; under setting [15], 100 % of control; under setting [16], 95 % of control; under setting [17], 105 % of control.
For the compound `CN(C)c1ccc(N=Nc2ccc(S(=O)(=O)O)cc2)cc1`, the T/C was 92 % of control under setting [18]; 103 % of control under setting [19]; 92 % of control (dose: 400.0 mg/kg/injection, schedule: Q04DX002 (ip), vehicle: Klucel (hydroxypropylcellulose) (HPC)).
Regarding `N#CCCSP(=S)(Oc1ccccc1)Oc1ccccc1`, the T/C is, setting by setting: (dose: 100.0 mg/kg/injection, schedule: Q01DX009 (ip), vehicle: other) 100 % of control; (dose: 200.0 mg/kg/injection, schedule: Q01DX009 (ip), vehicle: other) 100 % of control; (dose: 400.0 mg/kg/injection, schedule: Q01DX009 (ip), vehicle: other) 94 % of control.
